# Data: article PMC5811606, “Characterization of ^111In-labeled Glucose-Dependent Insulinotropic Polypeptide as a Radiotracer for Neuroendocrine Tumors” (Scientific Reports, 2018)
# “Also recorded” adds a separate entry of the source.
# How the values were obtained:
# [1] = target: T1, GIPR on the islets of Langerhans (Mus musculus, UniProt Q0P543); experiment: In vitro binding to isolated islets; details: islets of C3H mice, 24 hours, 37 °C, + 25 µg unlabeled GIP1-42, mean ± SD
# T1 construct: Islets of Langerhans were isolated from donor C3H mice by collagenase digestion; from tissue; host or cells: isolated islets of Langerhans from C3H mice
# T1 sequence (Q0P543 19-460): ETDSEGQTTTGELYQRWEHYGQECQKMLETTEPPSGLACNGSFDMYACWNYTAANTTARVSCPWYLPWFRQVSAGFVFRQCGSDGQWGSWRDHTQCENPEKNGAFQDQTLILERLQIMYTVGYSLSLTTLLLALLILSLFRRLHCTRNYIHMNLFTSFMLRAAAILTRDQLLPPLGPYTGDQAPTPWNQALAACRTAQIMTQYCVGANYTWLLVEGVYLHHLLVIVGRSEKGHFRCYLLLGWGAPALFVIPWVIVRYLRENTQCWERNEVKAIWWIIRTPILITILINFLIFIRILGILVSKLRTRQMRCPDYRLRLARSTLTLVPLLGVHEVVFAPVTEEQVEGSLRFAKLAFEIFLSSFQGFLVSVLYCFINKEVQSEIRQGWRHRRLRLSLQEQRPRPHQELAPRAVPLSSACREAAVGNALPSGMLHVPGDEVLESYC
# Method: Islets of Langerhans were isolated from donor C3H mice by collagenase digestion as follows. Mice were euthanized by CO2/O2 suffocation and 2 ml of ice cold RPMI 1640 containing 1 mg/ml collagenase type V (Sigma Aldrich) were infused via the pancreatic duct in situ. After dissection, the perfused pancreata were collected in serum free medium containing collagenase and kept on ice until digestion. Pancreata were digested for 12 min at 37 °C. Digestion was stopped by adding RPMI medium containing 10% FCS, 2 mM L-glutamine, 100 U/ml penicillin and 100 U/ml streptomycin (complete RPMI). After washing, digested pancreata were passed through a mesh. Afterwards, islets were purified on a discontinuous Ficoll gradient (densities: 1.108; 1.096; 1.037; Cellgro by Mediatech Inc, Manassas, VA, USA) by centrifugation at 625 × g for 16 min without brake. Islets were collected from the intersection of the second and third layer and remaining Ficoll was removed by washing with complete RPMI. Isolated islets were cultured overnight in complete RPMI medium in a humidified atmosphere containing 5% CO2 at 37 °C.
# After overnight recovery from the isolation procedure, islets from the donor C3H mice were collected, counted and resuspended in complete RPMI. […] After incubation, islets were washed extensively with binding buffer and islet-associated radioactivity was measured in a well type gamma counter.
# [2] = Serum stability analysis in human serum; assay type: in vitro ADME; details: human serum (1:10), 37 °C
# Method: [Lys^37(DTPA)]N-acetyl-GIP1-42 (MW = 5422 g/mol) and GIP1-42 (MW = 5046.7 g/mol) were purchased from Peptide Specialty Laboratories (PSL GmbH, Heidelberg, Germany). DTPA was conjugated to the ε-amino group of the Lysine (K37) and the N-terminal tyrosine was acetylated to reduce its susceptibility to […] (Fig. 1). [Lys^37(DTPA)]GIP1-42 was dissolved in 0.5 M MES (2-(N-morpholino)ethanesulfonic acid) buffer, pH 5.5 and stored at 4 °C until use. […] Radiochemical purity of [Lys^37(^111In-DTPA)]N-acetyl-GIP1-42 was determined by instant thin-layer chromatography (ITLC) (ITLC-SG, Agilent Technologies, Lake Forest, CA, USA), using 0.1 M EDTA in 0.1 M NH4Ac (Sigma Aldrich), pH 5.5 as a mobile agent and by reversed-phase high performance liquid chromatography (RP-HPLC) using an Eclipse XDB C18 column (Agilent Technologies). […]
# For the serum stability analysis, [Lys^37(DTPA)]N-acetyl-GIP1-42 was labeled with [^111In]Cl3 at a specific activity of 27 GBq/µmol. Radiochemical purity of [Lys^37(^111In-DTPA)]N-acetyl-GIP1-42 directly after labeling was determined by ITLC-SG (Agilent Technologies) and RP-HPLC as described above. […] This mixture was centrifuged and after dilution, the radiochemical purity of the compound in the supernatant was analyzed using ITLC and RP-HPLC as described above.
structure (smiles),measurement,setting,value
"CC[C@H](C)[C@H](NC(=O)[C@H](CO)NC(=O)[C@H](Cc1ccc(O)cc1)NC(=O)[C@H](CC(=O)O)NC(=O)[C@H](CO)NC(=O)[C@@H](NC(=O)[C@H](Cc1ccccc1)NC(=O)[C@@H](NC(=O)CNC(=O)[C@H](CCC(=O)O)NC(=O)[C@H](C)NC(=O)[C@H](Cc1ccc(O)cc1)NC(C)=O)[C@@H](C)O)[C@@H](C)CC)C(=O)N[C@@H](C)C(=O)N[C@@H](CCSC)C(=O)N[C@@H](CC(=O)O)C(=O)N[C@@H](CCCCN)C(=O)N[C@H](C(=O)N[C@@H](Cc1c[nH]cn1)C(=O)N[C@@H](CCC(N)=O)C(=O)N[C@@H](CCC(N)=O)C(=O)N[C@@H](CC(=O)O)C(=O)N[C@@H](Cc1ccccc1)C(=O)N[C@H](C(=O)N[C@@H](CC(N)=O)C(=O)N[C@@H](Cc1c[nH]c2ccccc12)C(=O)N[C@@H](CC(C)C)C(=O)N[C@@H](CC(C)C)C(=O)N[C@@H](C)C(=O)N[C@@H](CCC(N)=O)C(=O)N[C@@H](CCCCN)C(=O)NCC(=O)N[C@@H](CCCCN)C(=O)N[C@@H](CCCCN)C(=O)N[C@@H](CC(N)=O)C(=O)N[C@@H](CC(=O)O)C(=O)N[C@@H](Cc1c[nH]c2ccccc12)C(=O)N[C@@H](CCCCNC(=O)CN(CCN(CCN(CC(=O)O)CC(=O)O)CC(=O)O)CC(=O)O)C(=O)N[C@@H](Cc1c[nH]cn1)C(=O)N[C@@H](CC(N)=O)C(=O)N[C@H](C(=O)N[C@H](C(=O)N[C@@H](CCC(N)=O)C(=O)O)[C@@H](C)O)[C@@H](C)CC)C(C)C)[C@@H](C)CC [[Lys^37(^111In-DTPA)]N-acetyl-GIP1-42, metal not drawn]",tracer bound to 200 isolated islets with excess unlabeled GIP1-42,[1],0.03 ± 0.01 fmol
same,remaining at 24 h,"[2]; 24 hours, acetonitrile precipitation, RP-HPLC, read-out: activity found as intact radiolabeled peptide",73%
same,stability in human serum,"[2]; up to 4 hours, ITLC and RP-HPLC",remained intact; also recorded: remained stable
